Laboratory results reported in PMC9421655, “Novel Antagonist of the Type 2 Lysophosphatidic Acid Receptor (LPA2), UCM-14216, Ameliorates Spinal Cord Injury in Mice” (Journal of Medicinal Chemistry, 2022).

How the values were obtained:
[1] = biological target: T1, LPA2 (Homo sapiens, UniProt Q9HBW0); test: Ca2+ mobilization assay, antagonist activity at LPA2; type: cell-based; design: Emax: dose or concentration left out as unconfirmed
T1 construct: expressed in transfected cells
Description: (§1) Cells stably expressing the corresponding LPA1–3 receptor were grown as described previously.[18] Changes in intracellular calcium levels were measured by using the fluorescent calcium sensitive dye Fluo-4 NW (Invitrogen). RH7777 cells or B103 cells were plated on poly-D-lysine or collagen coated, respectively, black-wall clear-bottom 96-well plates (Corning) at a density of 50 000 cells/well and cultured overnight. The culture medium was then replaced with 100 μL of Fluo-4 NW dye loading solution containing 2.5 μM of probenecid and incubated for 30 min at 37 °C followed by an additional 30 min at rt. […] Fluorescence changes were registered in a FluoStar Optima instrument (BMG Labtech) at 525 nm using an excitation wavelength of 494 nm. […] The data presented are from two to four independent experiments carried out in triplicate or quadruplicate. Dose–response curves were generated and IC50 values calculated by nonlinear regression analysis using Prism software version 5 (GraphPad Software Inc., San Diego, CA, USA).
Figure S2. Dose response curves for compounds 13, 44, 53, 54, and 55. B103 cells stably expressing LPA2 receptor were incubated with different concentrations of the compound under study and […]
Curves were generated with PRISM software version 5 (GraphPad Software Inc, San Diego, CA, USA) using nonlinear regression analysis. Each data point corresponds to the mean±SEM of two to four independent experiments carried out in triplicate or quadruplicate.

[2] = biological target: T2, LPA3 (Homo sapiens, UniProt Q9UBY5); test: cell-based; conditions: maximum blockade of activation induced by 10 μM LPA (18:1) at 10 μM compound; N.E. = no effect at 10 μM
T2 sequence (Q9UBY5 1-353): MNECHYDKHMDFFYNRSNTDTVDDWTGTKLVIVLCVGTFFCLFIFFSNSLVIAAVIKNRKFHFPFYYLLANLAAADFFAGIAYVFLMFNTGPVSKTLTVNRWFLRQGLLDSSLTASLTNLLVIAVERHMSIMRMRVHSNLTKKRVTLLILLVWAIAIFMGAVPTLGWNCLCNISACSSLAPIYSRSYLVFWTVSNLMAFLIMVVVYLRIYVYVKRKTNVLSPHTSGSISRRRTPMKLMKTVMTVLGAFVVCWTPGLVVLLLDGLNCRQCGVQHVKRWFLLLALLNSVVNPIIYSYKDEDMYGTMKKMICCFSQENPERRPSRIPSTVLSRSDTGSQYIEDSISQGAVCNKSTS
Description: as §1

[3] = biological target: T3, LPA2 K278A mutant (Homo sapiens, UniProt Q9HBW0, K275A); test: Ca2+ mobilization in McA-RH7777 cells transfected with LPA2 point mutant K278A; type: cell-based
T3 construct: host or cells: McA-RH7777 (CRL-1601, ATCC), transient, pcDNA3.1

[4] = biological target: T1, LPA2; test: Free solution assay-compensated interferometric reader (FSA-CIR) binding, LPA2; conditions: receptor-containing nanovesicles, read-out: binding equilibrium constant (KD) at LPA2
Description: The assay was analyzed using a benchtop Compensated Interferometric Reader (CIR) that measured the light refractive index (ΔRI) change from binding-induced conformational and/or hydration changes produced by real time binding events in a sample (receptor containing nanovesicles plus compound) and compared to a nonbinding reference (RI matched buffer plus compound).[30] Finally, the interferometric signal from vector nanovesicles binding (nonspecific) to compound was subtracted from the LPA2,4–6 containing nanovesicles binding (total) to compound, to determine the specific binding interactions of the compounds to LPA2,4–6. The concentration-dependent change in RI (ΔRI) signal from the compounds to LPA2,4–6 or vector was fitted using the single site total vs nonspecific binding isotherm using GraphPad Prism. Specific KD values were determined by fitting the total minus nonspecific signal to a single site binding isotherm.
The detailed free solution assay method was described previously.[25],[26] All the compounds were dissolved in 100% DMSO, aliquoted, and frozen at −80 °C for 1 week. The compound dilution series was freshly prepared in 0.5% DMSO/PBS (pH 7.4) to keep the maximum compound in solution. […]

[5] = biological target: T1, LPA2; test: Ca2+ mobilization assay, agonist activity at LPA2; type: cell-based; conditions: 10 μM compound
Description: The agonist activity at LPA2 receptors was determined at 10 μM concentration for all final compounds as previously described.[18]
Figure S1. Representative snapshots showing the lack of significant agonist activity of selected compounds. (A) 1; (B) 13; (C) 54; and (D) Ki16425. (E) Graphs show the agonist activity induced […]
stably expressing LPA2 receptor were plated on collagen-coated black-wall clear-bottom 96-well plates (Corning) at a density of 50000 cells/well and cultured overnight. The culture medium was then replaced with Fluo-4 NW dye loading solution containing 2.5 µM of probenecid and incubated […]
for 30 minutes at 37 °C followed by an additional 30 minutes at rt. Fluorescence changes were registered in a FluoStar Optima instrument (BMG Labtech) at 525 nm using an excitation wavelength of 494 nm. Each well was monitored for 240 s. 20 µL of the test compound from a 6x stock solution in assay buffer were added after 120 s of starting the measurement. Ca2+ transient increase was quantified by calculating the difference between maximum and baseline values for each […]
Graphs shown are representative of two to three independent experiments.

T1 sequence (Q9HBW0 whole entry, species assumed): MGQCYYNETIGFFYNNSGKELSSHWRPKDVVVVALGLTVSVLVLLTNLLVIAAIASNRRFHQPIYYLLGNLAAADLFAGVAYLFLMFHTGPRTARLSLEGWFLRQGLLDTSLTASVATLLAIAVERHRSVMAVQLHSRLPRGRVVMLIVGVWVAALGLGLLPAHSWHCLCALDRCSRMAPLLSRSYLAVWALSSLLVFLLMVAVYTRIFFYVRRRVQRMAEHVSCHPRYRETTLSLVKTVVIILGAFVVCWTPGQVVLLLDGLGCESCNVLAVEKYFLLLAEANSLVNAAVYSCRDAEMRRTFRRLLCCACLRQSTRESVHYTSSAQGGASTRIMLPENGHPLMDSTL
T3 sequence (Q9HBW0 whole entry K275A): as the sequence (Q9HBW0 whole entry, species assumed) above, with K275A counted along it

What does the source list for `Cc1[nH]nc(-c2ccc(OCc3nnn[nH]3)cc2O)c1Oc1ccc(Cl)cc1Cl` [Compound 54]?
Emax [1]: 90 ± 2%; IC50 ([1]; antagonism of 10 μM LPA, mean ± s.e.m.): 1.9 µM; Emax (%) LPA3 [2]: inactive and N.E.; functional activity at LPA2 K278A mutant ([3]; 10 μM): behaved as an agonist; activation of LPA2 K278A mutant ([3]; at 10 μM, stimulation by 10 μM LPA normalized to 100%): 75 ± 5%; Kd [4]: 1.3 nM; melting point: 180 to 182 °C; agonist activity at LPA2 receptor [5]: lack
